Measured values: ChEMBL document CHEMBL1201862, “PubChem BioAssay data set” (2004)
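48-hour exposure; five concentrations; linearly interpolated endpoints. GI50 is the concentration that inhibits growth by half.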 Activity calls are given as the source filed them. No stated cut-off is given here; in the data, active = GI50 up to about 1.1 µM and inactive = higher.

Assays:
Assay in all cases: NCI-60 cell line screen, 48 h
DMS-114 = test system: DMS-114
XF498 = test system: XF498
DLD-1 = test system: DLD-1
HOP-18 = test system: HOP-18
SNB-78 = test system: SNB-78
KM-20L2 = test system: KM-20L2
M19-MEL = test system: M19-MEL
DMS-273 = test system: DMS-273
RXF 631 = test system: RXF 631

Measured: GI50

O=[N+]([O-])c1ccccc1S(=O)(=O)c1ccccc1[N+](=O)[O-]
inactive: DMS-114 > 90.2 µM | XF498 30.7 µM | DLD-1 > 100 µM | HOP-18 > 83.2 µM | SNB-78 16.4 µM | KM-20L2 > 100 µM | M19-MEL > 100 µM | DMS-273 > 100 µM

NC(=S)N/N=C(\CCC(=O)Nc1ccccc1[N+](=O)[O-])CC(=O)c1ccco1
inactive: DMS-114 > 100 µM | XF498 > 100 µM | DLD-1 > 100 µM | HOP-18 > 100 µM | RXF 631 > 100 µM | SNB-78 > 100 µM | KM-20L2 > 100 µM | M19-MEL > 100 µM | DMS-273 > 100 µM

COC(=O)C(=O)C(C#N)c1nc2ccccc2s1 (stereo not given)
inactive: DMS-114 > 100 µM | XF498 > 100 µM | DLD-1 56.4 µM | RXF 631 > 100 µM | SNB-78 > 100 µM | KM-20L2 > 100 µM | M19-MEL > 100 µM | DMS-273 > 100 µM

CN=[S+]([O-])(c1ccccc1)c1ccccc1
inactive: DMS-114 > 100 µM | XF498 > 100 µM | DLD-1 > 100 µM | HOP-18 > 100 µM | SNB-78 > 100 µM | KM-20L2 > 100 µM | M19-MEL > 100 µM | DMS-273 > 100 µM

CCOC(=O)c1cn(CC)c2cc3c(cc2c1=O)SCS3
inactive: DMS-114 > 100 µM | DLD-1 > 100 µM | HOP-18 80 µM | RXF 631 > 100 µM | KM-20L2 > 100 µM | M19-MEL > 100 µM | DMS-273 > 100 µM

COc1ccccc1C(O)(c1ccccc1)C(O)(c1ccccc1)c1ccccc1OC (stereo not given)
inactive: DMS-114 > 100 µM | XF498 > 100 µM | DLD-1 > 100 µM | HOP-18 > 100 µM | RXF 631 > 100 µM | SNB-78 > 100 µM | KM-20L2 > 100 µM | M19-MEL > 100 µM | DMS-273 > 100 µM

COC1OC(COCc2ccc(Cl)cc2)C(OCc2ccc(Cl)cc2)C1N=[N+]=[N-] (stereo not given)
inactive: DMS-114 24.2 µM | XF498 > 100 µM | HOP-18 > 100 µM | SNB-78 > 100 µM | KM-20L2 8 µM

CC1CN1c1c(C(=O)/C=C/c2ccc(Cl)cc2)c(-c2ccccc2)nn(C)c1=O (stereo not given)
inactive: DMS-114 3.65 µM | XF498 2.99 µM | DLD-1 1.71 µM | HOP-18 3.92 µM | SNB-78 2.21 µM | KM-20L2 3.26 µM | M19-MEL 3.14 µM | DMS-273 2.62 µM

CCOC(=O)C1(C)CCCCC(=O)N1 (stereo not given)
inactive: DMS-114 > 100 µM | XF498 > 100 µM | DLD-1 > 100 µM | HOP-18 64.3 µM | RXF 631 > 100 µM | SNB-78 > 100 µM | KM-20L2 > 100 µM | M19-MEL > 100 µM | DMS-273 > 100 µM

CCCc1cc(-c2ccc(-c3cc(CCC)c(C=O)[nH]3)s2)[nH]c1C=O
inactive: DMS-114 8.77 µM | XF498 > 100 µM | DLD-1 44.5 µM | HOP-18 53 µM | SNB-78 > 100 µM | M19-MEL 4.53 µM | DMS-273 86.1 µM

CC1=C(C)C(=O)c2c(cc3ccccn23)C1=O
inactive: DMS-114 12.9 µM | DLD-1 > 10 µM | HOP-18 33.9 µM | RXF 631 3.12 µM | SNB-78 23.1 µM | M19-MEL 1.87 µM | DMS-273 16.6 µM

CCOC(=O)N1Cc2ccoc2C1
inactive: DMS-114 > 100 µM | DLD-1 > 100 µM | HOP-18 > 100 µM | KM-20L2 > 100 µM | M19-MEL > 100 µM | DMS-273 > 100 µM

O=C(CC(=O)C1=CNc2ccccc2S1)C(=O)Nc1ccc(Cl)cc1
inactive: DMS-114 > 50 µM | XF498 > 50 µM | DLD-1 > 50 µM | RXF 631 > 50 µM | SNB-78 > 50 µM | KM-20L2 > 50 µM | M19-MEL > 50 µM | DMS-273 > 50 µM

CCCCCCCCCCCCCCCCc1c(O)nc(NC#N)nc1C(=O)OC
inactive: DMS-114 > 25 µM | XF498 > 25 µM | DLD-1 > 25 µM | HOP-18 > 25 µM | RXF 631 > 25 µM | SNB-78 > 25 µM | KM-20L2 > 25 µM | M19-MEL > 25 µM

c1ccc([P+](c2ccccc2)(c2ccccc2)C2Sc3ccccc3S2)cc1
inactive: DMS-114 12.7 µM | XF498 17.3 µM | DLD-1 12.4 µM | RXF 631 16 µM | SNB-78 18.7 µM | KM-20L2 23.4 µM | M19-MEL 15.1 µM | DMS-273 18.1 µM
